In patent publication US20030165446A1, “Divalent manganese salts for reducing odour resulting from bacterial decomposition of human perspiration” (priority 2003, published 2003):

Legend:
[1] = system: natural sweat (human axillary sweat); conditions: 1 mg of active material per ml of sweat, i.e. 0.1%, incubated 18 h then 24 h at 37° C., with respect to control sweat without deodorant agent; for Mean % of reduction in the odor annoyance (mean over 18 h and 24 h): hedonic grade
Method: A test of inhibition of the evolution of odors was carried out on natural sweat.
The principle of this test consists in adding the deodorant agent to fresh sweat and then in carrying out an olfactory evaluation by a jury of experts after incubating for 18 hours and then 24 hours at 37° C.
Thus, the axillary sweat was taken from several human models in a sauna and was combined to produce a sample of sweat. In order to obtain the characteristic nauseating odor of sweat, this sample of sweat was incubated […]. […] The active substance was then introduced into each of the flasks to be tested.
Per 1 mg of active material per ml of sweat, i.e. 0.1%: […]

[2] = system: Corynebacterium xerosis; type: cell-based; conditions: dilutions in agar medium
Method: (§1) The microbiostatic activity of MnCl2 was determined in comparison with triclosan (deodorant active principle of the prior art) by the method of dilutions in agar medium.
(§2) One hundred μl of the ethanolic solution were added to 0.9 ml of agar culture heated beyond the melting point to 45° C. (medium chosen as a function of the nutrient requirements of the strain studied). After stirring with a Vortex device, successive dilutions in geometric progression in a ratio of 2 of the solution obtained were carried out using agar culture medium heated beyond the melting point to 45° C. One ml of each dilution was introduced into the wells of a microplate (Flacon [sic], 24 wells). Four μl of microbial suspension were deposited at the surface of the agar medium.
(§3) Two control wells were also prepared: 100 μl H2O+0.9 ml of culture medium (growth control), 100 μl ethanol+0.9 ml of culture medium.
(§4) After incubating under conditions (temperature, atmosphere and duration) dependent on the strain studied, the Minimum Inhibitory Concentration (MIC) is given by the lowest concentration of product which inhibits microbial growth.
(§5) Results: expressed in % w/v

[3] = system: Staphylococcus epidermidis; type: cell-based; conditions: dilutions in agar medium
Method: as §1, §2, §3, §4, §5

[4] = background statement; cited from earlier work

| Compound | Mean % of reduction in the strength of the odor (mean over 18 h and 24 h) [1] [%] | Mean % of reduction in the odor annoyance (mean over 18 h and 24 h) [1] [%] | Minimum Inhibitory Concentration (MIC) [2] | Minimum Inhibitory Concentration (MIC) [3] | solubility in water [4] |
| --- | --- | --- | --- | --- | --- |
| Oc1cc(Cl)ccc1Oc1ccc(Cl)cc1Cl [Triclosan, 2,4,4′-trichloro-2′-hydroxydiphenyl ether] | −39 | −27 | 4 × 10^−6 % w/v | 3 × 10^−8 % w/v | insoluble |
| manganese chloride [MnCl2] | −43 | −31 | 0.23 % w/v | 0.23 % w/v | – |
